Active and inactive are the calls of the source. The rule behind the calls is not given here. Numbered stars: 1 amine (or outer) side, 2 acyl side, 3 side chain; on linkers, the order of the positions; unused ones are H or OH. Square brackets hold non-standard residues; d marks the D form. Peptide text beside a SMILES is read from it. X1 = CC(C)=CC[C@@]12C[C@@H](C(=O)[*:2])N([*:1])[C@@H]1Nc1ccccc12
Columns and labels:
[1] = test system: Trypanosoma brucei rhodesiense; test: Antitrypanosomal activity against Trypanosoma brucei rhodesiense IL-1501 assessed as parasite growth inhibition incubated for 69 hrs by AlamarBlue assay; assay type: functional, organism-based; conditions: IL-1501, 69 h
WI-38 = test: Cytotoxicity against human WI-38 cells assessed as cell growth inhibition measured after 72 hrs by MTT assay; assay type: cell-based; conditions: WI-38, 72 h
HeLa = test: Growth inhibition of human HeLa cells at 10 uM incubated for 72 hrs by MTT assay; assay type: functional, cell-based
HL-60 = test: Growth inhibition of human HL-60 cells at 10 uM incubated for 72 hrs by MTT assay; assay type: functional, cell-based
[2] = Ratio of IC50 for cytotoxicity against human WI-38 cells to IC50 for antitrypanosomal activity against Trypanosoma brucei rhodesiense IL-1501

- IC50 [1]: 2.3 µM
Compound: CSCC[C@@H]1NC(=O)[C@@H]2CCCN2C(=O)[C@H](C(C)C)NC(=O)[C@@H]2CCCN2C(=O)[C@@H]2CCCN2C(=O)[C@H](CC(C)C)NC(=O)[C@@H]2C[C@@]3(CC=C(C)C)c4ccccc4N[C@H]3N2C(=O)[C@@H]2CCCN2C(=O)[C@H](C(C)C)NC(=O)[C@H](CC(C)C)NC1=O (cyclo(LPPVPMLVP[X1]))
- IC50 (WI-38): 55 µM
- growth inhibition (GI) (HeLa): inactive
- growth inhibition (GI) (HL-60): inactive
- Ratio IC50 [2]: >20
